Experimental findings from patent publication US20110294728A1, “Antiviral Polypeptides” (priority 2008, published 2011) are described below.

Read-outs that look alike come from different tables or passages of the source. Where a SMILES comes first, the peptide text is derived from it. Bridges are numbered along the chain shown (N, C = ends). Where no end group is shown, it is not given here.

The test system of test [1] is wild type HIV 1 virus. Nature of the test: HIV propagation in Hu-PBL-SCID mice, wild type virus. The test is classed as in vivo, Hu-PBL-SCID transgenic mice. To be noted: 20 mg/kg; peptides formulated with CADY-2c/CADY-1S1; HIV-1 DNA copies in splenocyte extracts. The protocol: (§1) The potency of the peptides p27 (SEQ ID NO: 25) and p16 (SEQ ID NO: 19) was assessed in vivo following intravenous challenge of Hu-PBL-SCID transgenic mice (in which human (hu) peripheral blood leukocytes (PBLs) from healthy Epstein-Barr virus (EBV)-seropositive donors are injected into severe combined immunodeficiency (SCID) mice; Mosier et al., 1988). The mice (6 to 8 week-old male mice, 5 animals per group) were infected with wild type HIV 1 virus or efavirenz-resistance HIV strain harbouring K103N and N341V mutations on reverse transcriptase. Infected mice were treated with peptides formulated with the peptide vector CADY-2c (see above) in water at a ratio 1/20, and then particles were coated with 3% of CADY-1S1 (see above), as described in International Application WO 2007/069090. Particles were injected intravenously (100 μl) every 2 days for 1 week, then HIV-1 copy were quantified by quantitative PCR. Efavirenz (a non-nucleoside reverse transcriptase inhibitor; EFZ) was used a positive drug control.

Test [2] has as its system efavirenz-resistance HIV strain harbouring K103N and N341V mutations on reverse transcriptase. The test is classed as in vivo, Hu-PBL-SCID transgenic mice. To be noted: EFZ resistance strain; 20 mg/kg/day; peptides formulated with CADY-2c/CADY-1S1. The protocol:
as §1

The target in test [3] is T1, HIV-1 RT (Human immunodeficiency virus type 1 group M subtype B, UniProt P03366).
T1 construct: The heterodimeric p66/p51 RT was eluted with an imidazole gradient; p66 and p51 derived from p66 by proteolytic cleavage of the C-terminal RNAse H domain; made in house; host or cells: E. coli (M15 for the His-tagged subunits)
Nature of the test: biochemical. On the procedure: RNA-dependent-DNA RT-polymerase activity was measured in a standard reaction assay using poly(rA)-(dT)15 as template/primer as described in Restle et al. (1990). Ten microliters of reverse transcriptase (RT) at 20 nM was incubated at 37° C. for 30 min with 20 μL of reaction buffer (50 mM Tris, pH 8.0, 80 mM KCl, 6 mM MgCl2, 5 mM DTT, 0.15 μM poly(rA-dT), 15 μM dTTP, 0.3 μCi 3H-dTTP). For peptide evaluation, HIV-1 RT was incubated with increasing concentrations of peptide inhibitors for […], and polymerase reaction was initiated by adding reaction buffer. Reactions were stopped by precipitation of nucleic acids with 5 ml of 20% trichloroacetic acid (TCA) solution for 2 h on ice, then filtered using a multiwell-sample collector (Millipore), and washed with 5% TCA solution. Filters were dried at 55° C. for 30 min and radionucleotide incorporation was determined by liquid scintillation spectrometry.
A series of peptides have been derived from Pep-A sequence (SEQ ID NO: 28), which is derived from HIV-1 reverse transcriptase. First, P1 peptide (SEQ ID NO: 1) was obtained by removing the N-terminal arginine of Pep-A. Then, additional peptides were generated by performing an alanine scan on P1. P1-derived peptides were evaluated using a standard polymerase RT assay. Reported data correspond to the mean of three separate experiments.

Test [4] deals with HIV-1-LAI strain. On the procedure:
The anti-HIV activities of the peptides were assayed according to the methods described in Roisin et al. (2004). Phytohemagglutinin-P(PHA-P)-activated peripheral blood mononuclear cells (PBMC) treated by increasing concentrations of peptide (from 100 to 0.1 nM), one hour later, were infected with hundred 50% tissue culture infectious doses (TCID50) per 100,000 cells of the HIV-1-LAI strain (Barre-Sinoussi et al., 1983). This virus was amplified in vitro on PHA-P-activated PBMC. Viral stock was titrated using PHA-P-activated PBMC, and 50% TCID50 were calculated using Kärber's formula (Kärber, 1931). Samples were maintained throughout the culture, and cell supernatants were collected at day 7 post-infection and stored at −20° C. Viral replication was measured by quantifying reverse transcriptase (RT) activity in cell culture supernatants. In parallel, cytotoxicity of the compounds was evaluated in uninfected PHA-P-activated PBMC by colorimetric 3-(4-5 dimethylthiazol-2-yl)2,5diphenyl tetrazolium bromite (MTT) assay on day 7 (as described in Mossmann, 1983). Experiments were performed in triplicate and repeated with another blood donor. Data analyses were performed using SofiMax® Pro 4.6 microcomputer software: percent of inhibition of RT activity or of cell viability were plotted vs concentration and fitted with quadratic curves; 50% effective doses (ED50) and cytotoxic doses (CD50) were calculated.
In order to avoid any limitation due to the poor ability of peptides to cross cellular membranes, they were associated to the peptide-based nanoparticle delivery system Pep-1 (SEQ ID NO: 29), at a 1/10 molar ratio.

In test [5] the target is T2, HIV-1 integrase (Human immunodeficiency virus type 1 group M subtype B, UniProt P04585).
T2 construct: Integrase is a 32 kDA viral protein that is biologically active under a multimeric form
Nature of the test: biochemical. The test is classed as binding. The protocol: Fluorescein-labeled peptides (40 nM) were mixed with varying concentrations of integrase in 20 mM Tris pH 7.2, 50 mM NaCl, 10 mM MgCl2, and the r values were recorded.
Effect of the different peptides on the integrase (IN) activity, DNA binding and IN/DNA dissociation were evaluated as described in Example III.1 above, using fluorescence polarization and anisotropy measurements. Binding constant of the peptide for IN was determined by steady state fluorescence and anisotropy.

Test [6] concerns the target T2, HIV-1 integrase. Nature of the test: biochemical. On the procedure:
(§2) The simultaneous measurement of integrase-DNA interaction and subsequent 3′-processing activity by steady-state fluorescence anisotropy was performed as described in Guiot et al. (2006). […] After the initial DNA-binding step (performed at 25° C.), the 3′-processing activity was measured at 37° C. by fixed-time experiments: The reaction was stopped at varying times by adding SDS (0.25% final) which disrupts all IN-DNA complexes in the sample. The IN-mediated cleavage of the terminal GT dinucleotide (labeled by fluorescein on the 3′-end) leads to a significant decrease of r as compared to the r value corresponding to the fluorescein-labeled unprocessed DNA substrate. The fraction of released dinucleotide is calculated by using Eq. (1): […]

Test [7] has as its target T3, IN/DNA complexes (Human immunodeficiency virus type 1 group M subtype B, UniProt P04585). In words: DNA-binding of integrase, fluorescence anisotropy. The class given is biochemical, HIV-1. The protocol:
as §2

The target in test [8] is T3, IN/DNA complexes. Nature of the test: Dissociation of pre-formed IN-DNA substrate complexes. The test is classed as biochemical, HIV-1. The protocol: For dissociation experiments, IN-DNA substrate complexes were pre-formed at 25° C. before addition of peptides. The peptide-mediated dissociation of complexes was then studied at the same temperature by measuring the decrease in the r value as a function of time.

Test [9] concerns the target IN/LEDGF complex (Human immunodeficiency virus type 1 group M subtype B, UniProt P04585). Nature of the test: Dissociation of IN/LEDGF complex (AlphaScreen, immunoprecipitation). The test is classed as biochemical. The protocol:
Dissociation of IN/LEDGF complex was measured by fluorescence resonance energy transfer (AlphaScreen® technology) and immunoprecipitation experiments: • Amplified Luminescent Proximity Homogeneous Assay (ALPHA): when the proteins (IN and LEDGF), linked to acceptor and donor beads, interact together (i.e., are into close proximity), a photosignal (a high amplified signal with output in the 520-560 nm range) is detected; when the proteins are not in close proximity, the reactive oxygen decays and there is no detectable signal generated; • immunoprecipitation (IP) was performed using polyclonal anti LEDGF antibodies (purchased from Santa Cruz Biotechnology, USA) and polyclonal HA antibodies (purchased from Eurogentec, Belgium). Cell line expression HA-tagged integrase was using for the experiment in the presence of increasing concentrations of peptide inhibitors.

Where [10] appears, read: read-out: EC50 HIV-1 lai, Table 10.

In the case of `O=C1Nc2ccc(Cl)cc2[C@@](C#CC2CC2)(C(F)(F)F)O1` [Efavirenz, reference compound], the “HIV propagation in vivo (in words)” value in test [1] is recorded as “block HIV propagation in vivo”. Also, in [2], the “reduction of viral propagation” value is recorded as “no effect”.
For the compound `CC(C)C[C@@H]1NC(=O)[C@H](Cc2c[nH]c3ccccc23)NC(=O)[C@H](CCCCN)NC(=O)[C@H]([C@@H](C)O)NC(=O)CNC(=O)[C@@H](N)CSSC[C@@H](C(=O)O)NC(=O)[C@H](CC(C)C)NC(=O)[C@@H]2CCCN2C(=O)[C@H](Cc2c[nH]c3ccccc23)NC(=O)[C@H](C(C)C)NC(=O)[C@H](CCC(=O)O)NC(=O)[C@H]([C@@H](C)O)NC1=O` [Peptide P16C1] (H-CGTKWLTEVWPLC-OH; disulfide 1-13), the inhibition constant (Ki) in [3] came out at 32.1 µM; in test [6] it was 4.3 µM. In test [4] (setting [10]), the EC50 came out at 0.0025 µM. In [5], this compound had a Kd of 0.09 µM.
The matching figures for `CC[C@H](C)[C@@H]1NC(=O)[C@H](Cc2c[nH]c3ccccc23)NC(=O)[C@H](CCC(=O)O)NC(=O)[C@H]([C@@H](C)O)NC(=O)[C@H](CC(C)C)NC(=O)[C@H](Cc2c[nH]c3ccccc23)NC(=O)[C@H](CCCCN)NC(=O)[C@H]([C@@H](C)O)NC(=O)CNC(=O)[C@@H](N)CSSC[C@@H](C(=O)O)NC(=O)[C@H](CCC(=O)O)NC(=O)[C@H](C)NC(=O)[C@H]([C@@H](C)O)NC(=O)[C@H](CC(C)C)NC(=O)[C@@H]2CCCN2C1=O` [Peptide P27C1] (H-CGTKWLTEWIPLTAEC-OH; disulfide 1-16): 0.042 µM, above 100 µM, 0.00017 µM and above 100 µM.
GTKWLTEWIPL [Peptide P24] returned a Ki in test [3] of 0.7 ± 0.05 µM. Moreover, the EC50 in [4] (read-out: EC50, antiviral activity, peptide complexed with Pep-1) came to 0.0023 µM; in test [6], 33 µM; in test [7], 35 µM; in [8] it was 21 µM; in test [9], 13 µM. This compound also displayed a Kd in [5] of 0.35 µM.
In the case of KWLTEWIPLTAEAE [Peptide P26], the Ki in test [3] turned out to be 1.8 ± 0.7 µM. Also, in [3] (relative to PAW), the “reduction of efficiency (higher Ki) relative to PAW” value was 2.5 fold. The compound further had a Kd in [5] of 0.32 µM. The EC50 in [6] is 28 µM; in [7], 54 µM; in [8] it was 67 µM; in [9], above 50 µM.
